Experimental findings from patent US20040242870A1, “Antiviral methods and compounds” (priority 2000, published 2004) are described below.

Values after ≈ are worked out from the molar mass of the structure shown.

For data set [1], the system named is HIV-1. The experiment in a line: HeLa CD4 LTR β-gal HIV-1 attachment assay. The note with it: Human immunodeficiency virus 1, HeLa, read-out: IC50. In kind it is cell-based. How it is done: The attachment assay was performed with the HeLa CD4 LTR , β-gal cells available from the AIDS Research and Reference Reagent Repository. […] HeLa CD4 LTR β-gal cells express cell surface CD4 and contain an LTR β-galactosidase reporter construct. Upon infection either the Tat protein incorporated into the virion or new Tat produced following virus integration and transcription trans-activates the LTR β-gal reporter, leading to expression of the β-galactosidase enzyme. HeLa CD4 LTR β-gal cells are routinely cultured with the required selection antibiotics and screened for mycoplasma contamination. Twenty-four h prior to initiation of the assay cells were trypsinized, counted and 1×10^4 cells placed in a 0.2 cm well in media without selection antibiotics. […] A known titer of virus was then added to the wells and the incubation continued for 1 h. At the end of the incubation the wells were washed 6 times with media and the culture continued for 48 h. At 48 h the wells were washed one time with PBS and β-galactosidase enzyme expression determined by chemiluminescence per manufacturers instructions (Tropix Gal-screen™, Tropix, Bedford, Mass.). Compound toxicity was monitored on sister plates using MTS dye reduction.

Data set [2] concerns HeLa CD4 LTR β-gal cells. The experiment in a line: Compound toxicity in attachment assay (MTS dye reduction, sister plates). In kind it is cell-based. As for the experimental part:
At assay termination the assay plates were stained with the soluble tetrazolium-based dye MTS (CellTiter96® Reagent Promega) to determine cell viability and quantify compound toxicity. MTS is metabolized by the mitochondria enzymes of metabolically active cells to a soluble formazan product, allowing the rapid quantitative analysis cell viability and compound cytotoxicity. […] At termination of the assay 20 μL of MTS reagent was added per well and incubated for 4 h at 37° C. Adhesive plate sealers were used in place of the lids, the sealed plate was inverted several times to mix the soluble formazan product and the plate was read spectrophotometrically at 490 nm with a Molecular Devices Vmax plate reader.
The attachment assay was performed with the HeLa CD4 LTR , β-gal cells available from the AIDS Research and Reference Reagent Repository. […] HeLa CD4 LTR β-gal cells express cell surface CD4 and contain an LTR β-galactosidase reporter construct. Upon infection either the Tat protein incorporated into the virion or new Tat produced following virus integration and transcription trans-activates the LTR β-gal reporter, leading to expression of the β-galactosidase enzyme. HeLa CD4 LTR β-gal cells are routinely cultured with the required selection antibiotics and screened for mycoplasma contamination. Twenty-four h prior to initiation of the assay cells were trypsinized, counted and 1×10^4 cells placed in a 0.2 cm well in media without selection antibiotics. Media was removed at 24 h and compound in media placed on the cells and incubated for 15 to 30 min at 37° C. A known titer of virus was then added to the wells and the incubation continued for 1 h. At the end of the incubation the wells were washed 6 times with media and the culture continued for 48 h. At 48 h the wells were washed one time with PBS and β-galactosidase enzyme expression determined by chemiluminescence per manufacturers instructions (Tropix Gal-screen™, Tropix, Bedford, Mass.). Compound toxicity was monitored on sister plates using MTS dye reduction.

For data set [3], the system named is HIV-1. The experiment in a line: HeLa CD4 LTR β-gal/HL2/3 HIV-1 fusion assay. In kind it is cell-based. The note with it: Human immunodeficiency virus 1, HL2/3, read-out: Antiviral Activity IC50. An excerpt: This assay uses the HeLa CD4 LTR β-gal and HL2-3 cells available from the AIDS Research and Reference Reagent Repository. The HL2/3 are derived from HeLa cells and engineered to express HIV gp120 on their cell surface and Tat protein in their cytoplasma. Thus following gp 120/CD4/coreceptor-mediated fusion; cytoplasmic mixing results in the HL2/3 cell-derived Tat trans-activation of the β-galactosidase reporter. […] Twenty-four h prior to initiation of the assay cells were trypsinized, counted and 5×10^3 cells placed in a 0.2 cm well in media without selection antibiotics. To initiate the fusion assay HeLa CD4 LTR β-gal (5×10^3 cells per 0.2 cm well) were incubated with compound for 1 h at 37° C. HL2/3 cells (5×10^3) were added to the 0.2 cm well and the incubation continued for 48 h. At 48 h the wells were washed 1 time with PBS and β-galactosidase enzyme expression determined by chemiluminescence per manufacturers instructions (Tropix Gal-screen™, Tropix, Bedford, Mass.). Compound toxicity was monitored on sister plates using MTS dye reduction.

Data set [4] has as its system HIV-1 strain RoJo. The experiment in a line: PBMC time-of-addition assay (RT in cell-free supernatant at 6 days). In kind it is cell-based. How it is done: Peripheral blood monocular cells (PBMCs) were obtained from normal hepatitis and HIV-1 negative donors by ficoll hypaque gradient separation. The mononuclear cells were washed to remove residual separation media, counted, viability determined and resuspended in RPMI 1640 medium supplemented with 15 % FBS (heat inactivated), 2 mM L-glutamine, 100 U/mL penicillin, 100 μg/mL streptomycin, and 10 μg/mL gentamycin with 2 μg/mL phytohemagluttin (PHA) at 1×10^6 cells/mL. The cells were cultured for 48 to 72 h at 37° C., 5% CO2. Following incubation, cells were collected by centrifugation, washed and resuspended in RPMI 1640 supplemented with 15% FBS (heat inactivated), 2 mM L-glutamine, 100 U/mL penicillin, 100 μg/mL streptomycin, and 10 μg/mL gentamycin with 20 U/mL recombinant IL-2 (R & D Systems, Minneapolis, Minn.). IL-2 was included in the culture medium to maintain the cell division initiated by the PHA mitogenic stimulation, and promote optimal growing conditions for the PBMCs. The cultures were then maintained until use by ½ culture volume change with fresh IL-2 containing medium every 3 days.
(§1) Human peripheral blood mononuclear cells from a minimum of 2 donors, that have been blasted with PHA and IL-2, were counted, viability determined by Trypan Blue dye exclusion and mixed in equal ratios. Pooled donors were used to minimize the variability observed between individual donors which results from quantitative and qualitative differences in HIV infection and overall response to the PHA and IL-2 of primary lymphocyte populations. The cells were resuspended at 1×10^6 cells/mL in RPMI 1640 without phenol red supplemented with 15% Fetal Bovine Serum (heat inactivated), 2 mM L-glutamine, 100 U/mL penicillin, 100 μg/mL streptomycin, 10 μg/Ln gentamycin and IL-2 (20 U/mL, R&D Systems, Minneapolis, Minn.). Fifty microliters of cells were then distributed to the inner 60 wells of a 96 well round bottom microtiter culture plate in a standard format developed by the Infectious Disease Research department of Southern Research Institute. Each plate contains cell control wells (cells only), virus control wells (cells plus virus), and experimental wells (drug plus cells plus virus). Alternatively, cells were cultured in T25 cm^2 or T75 cm^2 tissue culture flasks at a starting density of 1×10^6 cells per ml. Serially diluted compounds were added to the microtiter plate or tissue culture flask followed by the appropriate pre-titered strain of HIV-1. For virus replication inhibition experiments the HIV-1 strain RoJo was used. This is a low passage presumable subtype B pediatric isolate with a syncytium inducing (SI) phenotype in MT-2 cells isolated by Southern Research Institute personnel. All samples were assayed in triplicate where possible with an accompanying determination of compound toxicity. The final volume per well in the microtiter plates was 200 μL. The final volume in the tissue culture flask varied depending upon experimental design and flask size. Assays were incubated for 6 days in a humidified atmosphere at 37° C., 5% CO2, after which supernatants were collected, for analysis of RT activity and cell viability by MTS dye reduction. Culture were also examined microscopically, any abnormalities noted, and in the case of tissue culture flasks cell counts and viability determined by Trypan Blue Dye exclusion.
Time-of-addition assays were performed with PBMCs in two ways. For both assays, PBMCs were isolated and cultured under the conditions as described above. Time-of-addition assays were carried out in either a tissue culture flask format (T-75 cm^2) or in microtiter wells. In both cases due to the lack of plastic adherence and heterogeneity of the PBMC population for susceptibility to infection, it was not possible to use complete removal of virus following a timed adsorption to synchronize the infection and limit the assay to a single round of infection. […]

In data set [5] the test system is PBMCs. Put plainly: PBMC cytotoxicity in time-of-addition assay. In kind it is cell-based, Human.
Source text: as §1
Time-of-addition assays were performed with PBMCs in two ways. For both assays, PBMCs were isolated and cultured under the conditions as described above. Time-of-addition assays were carried out in either a tissue culture flask format (T-75 cm^2) or in microtiter wells. In both cases due to the lack of plastic adherence and heterogeneity of the PBMC population for susceptibility to infection, it was not possible to use complete removal of virus following a timed adsorption to synchronize the infection and limit the assay to a single round of infection. Therefore, serial washing by partial removal of the media was used to reduce the concentration of virus and compound (if required) in the assay. Compound addition in relationship to antiviral activity was either assessed over a short addition interval immediately before or after virus addition or for up to 72 h post infection. For all assays virus replication was assessed at 6 days of culture by determining RT expression in cell-free supernatants. In the tissue culture flask format cells were counted and Trypan Blue Dye exclusion used to monitor compound cytotoxicity. Cell viability in the 96 well microtiter plate format was determined by MTS dye reduction. AZT was used as a positive control.
At assay termination the assay plates were stained with the soluble tetrazolium-based dye MTS (CellTiter96® Reagent Promega) to determine cell viability and quantify compound toxicity. MTS is metabolized by the mitochondria enzymes of metabolically active cells to a soluble formazan product, allowing the rapid quantitative analysis cell viability and compound cytotoxicity. […] At termination of the assay 20 μL of MTS reagent was added per well and incubated for 4 h at 37° C. […]

Data set [6] deals with PBMCs. The experiment in a line: PBMC apoptosis by flow cytometry (APO-BRDU kit). In kind it is cell-based, Human. As for the experimental part: Flow cytometry studies were carried out on PHA/IL-2 induced PBMCs treated for 6 days with the various test compounds. Prior to flow cytometry the PBMCs were washed, counted and 1×10^6 cells resuspended in PBS and stained for CD4 or CD8 surface markers using anti-CD4.PE or CD8.PE (both from PharMingen) for 30 min at 4° C. The PBMC were then washed, fixed (Cytofix) and permeabilized (Cytoperm) followed by staining for apoptosis-related DNA damage. Initial experiments used the BrdU Flow Kit from PharMigen (2354KK). […] For both kits, manufacturers instructions were followed for staining and analysis of the samples. Following the appropriate staining protocol the cells were analyzed using a Becton Dickinson (Bedford, Mass.) FACSSort
In another series of experiments, the IG compounds and cannabidiol treated cells were assessed for the induction of apoptosis (see Tables 8 and 9). […] As IL-2 is an essential component for maintaining the health of PHA induced PBMCs, a second focus of these studies focuses on the effect of the compounds in the absence of IL-2.
For orientation: A flow cytometer gives signals particle by particle.

Setting [7] is: IL-2 supplemented media, 1 μM, HIV +.
Where [8] appears, read: IL-2 supplemented media, 1 μM, HIV −.

For `COc1cc(-c2ccc(/N=N/c3ccc4c(S(=O)(=O)O)cc(S(=O)(=O)O)c(N)c4c3O)c(OC)c2)ccc1/N=N/c1ccc2c(S(=O)(=O)O)cc(S(=O)(=O)O)c(N)c2c1O` [CSB, Chicago Sky Blue, reference compound], the IC50 in data set [1] (Experiment 1, pretreat 0 h) came to 1.1 µg/mL (≈ 1.22 µM); in data set [1] (Experiment 1, pretreat 4 h), 1.71 µg/mL (≈ 1.89 µM); in data set [1] (Experiment 1, pretreat 24 h), 1.3 µg/mL (≈ 1.44 µM); in data set [1] (Experiment 2, pretreat 0 h), 0.17 µg/mL (≈ 0.188 µM); in data set [1] (Experiment 2, pretreat 4 h) it was 2.11 µg/mL (≈ 2.33 µM); in data set [1] (Experiment 2, pretreat 24 h), 4.7 µg/mL (≈ 5.19 µM). For the same molecule, the IC50 in data set [3] was 1.75 µg/mL (≈ 1.93 µM). Moreover, the TC50 in data set [2] (Experiment 1, pretreat 0 h) is above 10 µg/mL; in data set [2] (Experiment 1, pretreat 4 h), above 10 µg/mL; in data set [2] (Experiment 1, pretreat 24 h), above 10 µg/mL; in data set [2] (Experiment 2, pretreat 0 h) it was above 10 µg/mL; in data set [2] (Experiment 2, pretreat 4 h) it was above 10 µg/mL; in data set [2] (Experiment 2, pretreat 24 h), above 10 µg/mL.
On to `Cc1cn([C@H]2C[C@H](N=[N+]=[N-])[C@@H](CO)O2)c(=O)[nH]c1=O` [AZT, reference compound], for which the enhancement of activity in data set [4] (4 h preincubation) is recorded as 4.6 fold. Besides, the IC50 in data set [4] (pre-treat 0 h prior to infection) was found to be 1.3 nM; in data set [4] (pre-treat 2 h prior to infection), 1.1 nM; in data set [4] (pre-treat 4 h prior to infection) it was 1.1 nM; in data set [4] (pre-treat 24 h prior to infection), 3.1 nM. Also, the TC50 in data set [5] (6 h post infection), in data set [5] (at infection) and in data set [5] (−4 h pre (relative to infection)) was above 4000 nM throughout. The “% Apoptosis” value in data set [6] (IL-2 deficient media, 1 μM, HIV +) amounted to 13.7%; in data set [6] (IL-2 deficient media, 1 μM, HIV −), 15.1%; in data set [6] (setting [7]), 13.3%; in data set [6] (setting [8]) it was 15.0%. Also, the figures for the “Fold Change” value in data set [6] (setting [7]) and in data set [6] (setting [8]) were 0.8 and 1.3, respectively.

B1: FAS: positive control (kit and Fas ligand) of the apoptosis procedure (protein, UniProt P48023 130-281, looked up)
Tumor necrosis factor ligand …: QIGHPSPPPEKKELRKVAHLTGKSNSRSMPLEWEDTYGIVLLSGVKYKKGGLVINETGLYFVYSKVYFRGQSCNNLPLSHKVYMRNSKYPQDLVMMEGKMMSYCTTGQMWARSSYLGAVFNLTSADHLYVNVSELSLVNFEESQTFFGLYKL
Consider B1, for which the “% Apoptosis” value came out at 16.2% in data set [6] (IL-2 deficient media, HIV +, positive control, concentration not given); 13.7% in data set [6] (IL-2 deficient media, HIV −, positive control, concentration not given); 17.3% in data set [6] (IL-2 supplemented media, HIV +, positive control, concentration not given); 17.8% in data set [6] (IL-2 supplemented media, HIV −, positive control, concentration not given).

As usually defined, the IC50 is the midpoint of a concentration-inhibition curve.
